# Laboratory results from patent publication US20240391900A1, “RIP1 KINASE INHIBITOR AND USE THEREOF” (SIRONAX (BEIJING) CO., LTD., priority 2021, published 2024).
# Columns and labels:
# [1] = test system: HT-29 human colon cancer cells; test: In vitro biological activity assay: inhibition of TNFα/SmacM/Z_VAD FMK-induced programmed necrosis, CellTiter-Glo viability; type: cell-based; conditions: HT-29 cells, necrosis induced with TNF-α 100 ng/mL, SmacM 100 nM, Z_VAD-FMK 10 μM, overnight, cell viability by chemiluminescence
# Method: In order to verify the inhibitory effect of the compounds of the present disclosure on programmed necrosis at the cellular level, a type of cells closely related to the RIP1 pathway, namely HT-29 human colon cancer cells, were selected. The used activation mode is a combination of tumor necrosis factor (TNFα), cysteine aspartate activator mimic (SmacM) and pan-caspase inhibitor Z_VAD FMK, and the cell viability was calculated by detecting chemiluminescence values, thus obtaining the biological activity of the compound inhibiting the programmed necrosis of cells.
# Cell line: HT-29 (ATCC® HTB-38™)
# • 2.1. The Growth Status of HT-29 Cells was Regularly Checked to Ensure their Normal Growth. • 2.2. McCOY's 5A culture medium containing 10% FBS was preheated in a 37° C. water bath for 30 minutes. When the culture medium was ready for use, the cell passage and inoculation was performed in a Class II safety cabinet with aseptic technique. • 2.3. In a T75 culture flask, when the growth density of cells reached the abundance of approximately 80%, the culture medium was aspirated and cells were washed twice with pre-warmed PBS. • 2.4. 2-3 mL of trypsin (Gibco, catalog number 25200-056) was added and the T75 culture flask was transferred to a 37° C. incubator. • 2.5. After 3-5 minutes, the side of the culture flask was tapped and examined under a microscope for detachment of the cells to the flask. If necessary, the cells were placed back into the incubator to wait for another 5-10 minutes until 85% of the cells were detached from each other. • 2.6. 6-9 mL of complete cell culture medium was quickly added to terminate the trypsin reaction, and then the cells were transferred to a sterile 15 mL centrifuge tube. The cells were pelleted by centrifugation at 300 g for 5-7 minutes in a centrifuge, and then the supernatant was decanted. • 2.7. The cells were resuspended in 10 mL of fresh cell culture medium and the cells were counted by using a hemocytometer. • 2.8. 3,000 cells contained in 100 μL were inoculated into each well of a sterile 96-well cell culture plate (Corning 3903) and cultured overnight at 37° C. under 5% CO2.
# • 3.1. All batches of compounds were dissolved in dimethyl sulfoxide (DMSO) to prepare a 20 mM stock. • 3.2. 3 μL of 20 mM stock of each compound was added to 27 μL of DMSO and mixed thoroughly, and then diluted at a dilution ratio of […] (20 μL compound+40 μL DMSO) until the 10-12 points ended. After the compounds were diluted, they were set aside for use. • 3.3. The cell culture plate was taken out from the incubator, washed once with PBS, and replaced with a fresh culture medium free of serum. A mixture of TNF-α (100 ng/mL), SMAC mimic (SmacM, 100 nM) and Z_VAD-FMK (10 μM) was added to induce the programmed necrosis in HT-29 cells. • 3.4. The compound dilution plate was prepared, 0.5 μL of the diluted compound was added to the corresponding 96-well plate, and mixed gently. Two duplicate wells were prepared for each compound. • 3.5. The treated 96-well plate to which the compounds had been added was placed back into the 37° C. incubator containing 5% CO2 and incubated overnight.
# The luminescence cell viability detection kit was used to calculate the activity of the compound by measuring the ATP content in viable cells. • 4.1. The CellTiter-Glo® buffer and dry powdered substrate were equilibrated to room temperature before use. • 4.2. The CellTiter-Glo® substrate was resuspended with Cell Titer-Glo® buffer, then homogeneously mixed by gently vortexing. • 4.3. The cell culture plate was taken out and equilibrated at room temperature for 10 minutes (usually not suitable if more than 30 minutes). • 4.4. 20 μL of enzyme/substrate mixture was added into the 96-well assay plate with a multi-channel pipettor. • 4.5. The 96-well assay plate was placed on a shaker and the content was mixed for 2-3 minutes to promote the cell lysis. • 4.6. […]
# [2] = Rapid brain distribution assay (LC-MS/MS, brain tissue/plasma ratio); type: in vivo; conditions: mouse, ip, CD1 mice, intraperitoneal, grouped compounds, brain tissue and plasma taken one hour after administration, read-out: B/P
# Method: The contents in plasma and tissue samples were measured by LC-MS/MS to obtain the ratio of the concentration in the brain tissue sample to that in the plasma sample, and compounds with blood-brain penetration could be quickly screened.
# • 3.1. A group of compounds (usually 3-4 compounds, the molecular weight difference between each other was greater than 5), weighing 1-2 mg of each compound, were added into the same 4 mL weighing bottle. • 3.2. A mixed solvent of 10% DMSO+20% polyethylene glycol-15-hydroxystearate+70% H2O was used to prepare each group to a volume of 1.5 mL-2 mL. • 3.3. The mixture was ultrasonically vortexed until a homogeneous solution was obtained for intraperitioneal administration.
# • 4.1. Three CD1 mice were prepared for each group and weighed. • 4.2. The administration volume was 10 mL/kg, and the mice were administered intraperitoneally. • 4.3. Timing was started after administration, and plasma samples and brain tissue samples were taken one hour later. • 4.4. The brain tissue sample was weighed, and then 4 fold volume of physiological saline was added. The resulting mixture was homogenized, and frozen at −20° C. until analysis.
# • 5.1. The exact molecular weight of a compound was found from the compound information table. • 5.2. The corresponding parent ions and fragment ions were found, and the mass spectrometry condition and the liquid phase (chromatography) method were optimized to find the appropriate condition and method.
# • 6.1. Plasma sample (5-fold dilution): 10 μL of the plasma sample was taken, and 40 μL of the blank plasma sample and 50 μL of the corresponding blank tissue sample were added. • 6.2 Tissue sample processing: 50 μL of the tissue sample (brain, kidney, liver and the like) was taken, and 50 μL of the blank plasma sample was added. • 6.3. The above tissue sample and the diluted plasma sample were taken, and 500 μL of the internal standard solution was added to precipitate the protein. The resulting mixture was vortexed for 2 minutes, stored by freezing at −20° C. for 1 hour and centrifuged at 3800 rpm for 15 minutes at 4° C. The supernatant was taken, 5-fold diluted with 50% MeOH, and then vortexed for 2 minutes, ready for measurement.
# The sample was detected by using an appropriate LC-MS/MS method.
# Distribution ratio of tissue/plasma=(peak area of compound in tissue/peak area of internal standard)/(peak area of compound in plasma/peak area of internal standard)
SMILES,EC50 [1],Kp at 1 h [2]
Cn1cc(C#Cc2cnc(N)nc2)cc(-n2cc3c(n2)C(c2ccccc2)CC3)c1=O (stereo not shown) [Compound 44],≤ 0.1 µM,3.25
"Cc1ncc(C#Cc2cnc(N)nc2)cc1-n1nc2c(n1)C(c1ccccc1)CC2 (stereo not shown) [Compound 58, 5-((6-methyl-5-(4-phenyl-5,6-dihydrocyclopenta[d][1,2,3]triazol-2 (4H)-yl)pyridin-3-yl)ethynyl)pyrimidin-2-amine]",≤ 0.1 µM,2.93
"C(#Cc1cnc2cccnn12)c1cccc(-n2cc3c(n2)C(c2ccccc2)CC3)n1 (stereo not shown) [Compound 1, 3-((6-(6-phenyl-5,6-dihydrocyclopenta[c]pyrazol-2 (4H)-yl)pyridin-2-yl)ethynyl)imidazo[1,2-b]pyridazine]",≤ 0.1 µM,0.735
"Nc1ncc(C#Cc2cncc(-n3cc4c(n3)C(c3ccccc3)OC4)c2)cn1 (stereo not shown) [Compound 51, 5-(5-(6-phenyl-4H-furo[3,4-c]pyrazol-2 (6H)-yl)pyridin-3-ethynyl)pyrimidin-2-amine]",≤ 0.1 µM,2.46
"Nc1ncc(C#CC2CCC(n3cc4c(n3)C(c3ccccc3)CC4)C2)cn1 (stereo not shown) [Compound 3, 5-((3-(6-phenyl-5,6-dihydrocyclopenta[c]pyrazol-2 (4H)-yl)cyclopentyl)ethynyl)pyrimidin-2-amine]",≤ 0.1 µM,3.96
"Nc1ncc(C#Cc2cncc(-n3nc4c(n3)C(C3CCCCC3)CC4)c2)cn1 (stereo not shown) [Compound 2, 5-((5-(4-cyclohexyl-5,6-dihydrocyclopenta[d][1,2,3]triazol-2 (4H)-yl)pyridin-3-yl)ethynyl)pyrimidin-2-amine]",≤ 0.1 µM,0.62
"Cc1ncc(C#Cc2cccc(-n3cc4c(n3)C(c3ccccc3)CC4)c2)n1C (stereo not shown) [Compound 24, 2-(3-((1,2-dimethyl-iH-imidazole-5-yl)ethynyl)phenyl)-6-phenyl-2,4,5,6-tetrahydrocyclopenta[c]pyrazole]",≤ 0.1 µM,1.33
"Cn1c(-n2nc3c(n2)C(C2CCCCC2)CC3)cc(C#Cc2cnc(N)nc2)cc1=O (stereo not shown) [Compound 65, 4-((2-aminopyrimidin-5-yl)ethynyl)-6-(4-cyclohexyl-5,6-dihydrocyclopenta[d][1,2,3]triazol-2 (4H)-yl)-1-methylpyridin-2 (1H)-one]",≤ 0.1 µM,1.12
"Nc1ncc(C#Cc2cccc(-n3cc4c(n3)C(c3ccccc3)CC4)c2)cn1 (stereo not shown) [Compound 36, 5-((3-(6-phenyl-5,6-dihydrocyclopenta[c]pyrazol-2 (4H)-yl)phenyl)ethynyl)pyrimidin-2-amine]",≤ 0.1 µM,3.62
"Nc1ncc(C#Cc2cncc(-n3nc4c(n3)[C@@H](c3ccccc3)CC4)c2)cn1 [Compound 56, (R)-5-((5-(4-phenyl-5,6-dihydrocyclopenta[d][1,2,3]triazol-2 (4H)-yl)pyridin-3-yl)ethynyl)pyrimidin-2-amine]",> 1 µM,1.2
"Nc1ncc(C#Cc2cncc(-n3nc4c(n3)[C@H](c3ccccc3)CC4)c2)cn1 [Compound 55, (S)-5-((5-(4-phenyl-5,6-dihydrocyclopenta[d][1,2,3]triazol-2 (4H)-yl)pyridin-3-yl)ethynyl)pyrimidin-2-amine]",≤ 0.1 µM,2.61
"Nc1ccc(C#Cc2cncc(-n3cc4c(n3)C(c3ccccc3)CC4)c2)cn1 (stereo not shown) [Compound 16, 5-((5-(6-phenyl-5,6-dihydrocyclopenta[c]pyrazol-2 (4H)-yl)pyridin-3-yl)ethynyl)pyridine-2-amine]",≤ 0.1 µM,2.24
Nc1ncc(C#Cc2cncc(-n3nc4c(c3Cl)CCC4c3ccccc3)c2)cn1 (stereo not shown) [Compound 39],≤ 0.1 µM,2.07
Nc1ncc(C#Cc2ccnc(-n3cc4c(n3)C(c3ccccc3)CC4)c2)cn1 (stereo not shown) [Compound 28],≤ 0.1 µM,1.91
"Nc1ncc(C#Cc2cncc(-n3nc4c(n3)C(c3cc(F)cc(F)c3)CC4)c2)cn1 (stereo not shown) [Compound 63, 5-((5-(4-(3,5-difluorophenyl)-5,6-dihydrocyclopenta[d][1,2,3]triazol-2 (4H)-yl)pyridin-3-yl)ethynyl)pyrimidin-2-amine]",≤ 0.1 µM,3.77
"Oc1ccc(C#Cc2cncc(-n3cc4c(n3)C(c3ccccc3)CC4)c2)nn1 (stereo not shown) [Compound 11, 6-((5-(6-phenyl-5,6-dihydrocyclopenta[c]pyrazol-2 (4H)-yl)pyridin-3-yl)ethynyl)pyridazine-3-ol]",≤ 0.1 µM,1.23
"COc1ccc(C#Cc2cccc(-n3cc4c(n3)C(c3ccccc3)CC4)c2)cn1 (stereo not shown) [Compound 33, 2-(3-((6-methoxypyridin-3-yl)ethynyl)phenyl)-6-phenyl-2,4,5,6-tetrahydrocyclopenta[c]pyrazole]",≤ 0.1 µM,0.563
Nc1ncc(C#Cc2cncc(-n3cc4c(n3)C(c3ccccc3)CC4)c2)cn1 (stereo not shown) [Compound 38],≤ 0.1 µM,2.46
"Nc1ncc(CCc2cncc(-n3cc4c(n3)[C@H](c3ccccc3)CC4)c2)cn1 [Compound 61, (S)-5-(2-(5-(6-phenyl-5,6-dihydrocyclopenta[c]pyrazol-2 (4H)-yl)pyridin-3-yl)ethyl)pyrimidin-2-amine]",≤ 0.1 µM,1.17
"C(#Cc1cnc2ccccn12)c1cccc(-n2cc3c(n2)C(c2ccccc2)CC3)c1 (stereo not shown) [Compound 15, 3-((3-(6-phenyl-5,6-dihydrocyclopenta[c]pyrazol-2 (4H)-yl)phenyl)ethynyl)imidazo[1,2-a]pyridine]",≤ 0.1 µM,0.406
"C(#Cc1cccc(-n2cc3c(n2)C(c2ccccc2)CC3)c1)c1cccnc1 (stereo not shown) [Compound 32, 6-phenyl-2-(3-(pyridin-3-ethynyl)phenyl)-2,4,5,6-tetrahydrocyclopenta[c]pyrazole]",≤ 0.1 µM,1.27
C(#Cc1cnc2cccnn12)c1cc(-n2cc3c(n2)C(c2ccccc2)CC3)ccn1 (stereo not shown) [Compound 37],≤ 0.1 µM,1.06
Nc1ncc(C#Cc2cncc(-n3cc4c(n3)C(c3cccc(F)c3)CC4)c2)cn1 (stereo not shown) [Compound 45],≤ 0.1 µM,2.28
